Laboratory results taken from patent publication US8063067B2, “Hexenoic acid derivatives, processes for the preparation thereof, pharmaceutical compositions comprising them, and therapeutic applications thereof” (Merck Patent GmbH, priority 2004, dated 2011).
Marks after values point to notes of the source that are not given here.

How the values were obtained:
[1] = target: T1, chimeric protein PPARγ-Gal4 (Homo sapiens, UniProt P37231); assay: PPARγ-Gal4 chimera luciferase reporter transactivation in co-transfected CV-1 cells; type: cell-based; details: CV-1 cells (monkey kidney cells), 18 hours contact, fold relative to control cells without product
T1 construct: expressed in transfected cells; host or cells: CV-1 cells (monkey kidney cells)
T1 sequence (P37231 238-503 limits assumed): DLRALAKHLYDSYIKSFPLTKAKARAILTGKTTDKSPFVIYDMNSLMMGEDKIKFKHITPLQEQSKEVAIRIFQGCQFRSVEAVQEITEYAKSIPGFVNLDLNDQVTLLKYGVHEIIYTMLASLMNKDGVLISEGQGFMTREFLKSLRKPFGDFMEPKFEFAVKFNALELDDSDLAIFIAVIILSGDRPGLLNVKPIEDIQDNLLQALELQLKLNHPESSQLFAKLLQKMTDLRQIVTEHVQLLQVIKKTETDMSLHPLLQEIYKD
Description: (§1) The measurement of the PPAR activation was performed according to a technique described by Lehmann et al. (J. Biol. Chem., 270, (1995), 12953-12956).
(§2) CV-1 cells (monkey kidney cells) are co-transfected with an expression vector for the chimeric proteins PPARα-Gal4 or PPARγ-Gal4 and with a “reporter” plasmid that allows the expression of the luciferase gene placed under the control of a promoter comprising Gal4 response elements.
(§3) The cells are plated into 96-well microplates and co-transfected using a commercial reagent with the reporter plasmid (pG5-tk-pGL3) and the expression vector for the chimeric protein (PPARα-Gal4 or PPARγ-Gal4). After incubating for 4 hours, whole culture medium (comprising 10% foetal calf serum) is added to the wells. After 24 hours, the medium is removed and replaced with whole medium comprising the test products (50 μM, 25 μM and 12.5 μM final). The products are left in contact with the cells for 18 hours. The cells are then lysed and the luciferase activity is measured using a luminometer. A PPAR activation factor can then be calculated by means of activation of the expression of the reporter gene induced by the product (relative to the control cells that have not received any product).

[2] = target: T2, chimeric protein PPARα-Gal4 (Homo sapiens, UniProt Q07869); assay: PPARα-Gal4 chimera luciferase reporter transactivation in co-transfected CV-1 cells; type: cell-based; details: CV-1 cells (monkey kidney cells), 18 hours contact, fold relative to control cells without product
T2 construct: expressed in transfected cells; host or cells: CV-1 cells (monkey kidney cells)
T2 sequence (Q07869 239-466 limits assumed): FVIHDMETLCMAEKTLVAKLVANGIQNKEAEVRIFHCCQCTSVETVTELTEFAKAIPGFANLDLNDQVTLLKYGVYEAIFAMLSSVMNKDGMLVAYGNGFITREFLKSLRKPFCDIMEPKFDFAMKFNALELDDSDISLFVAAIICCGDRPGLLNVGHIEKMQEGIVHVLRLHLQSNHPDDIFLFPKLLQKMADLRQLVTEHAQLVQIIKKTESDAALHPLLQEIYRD
Description: as §1, §2, §3

Gal4 alone = target: T3, Gal4 alone (Saccharomyces cerevisiae, UniProt P04386); assay: Luciferase reporter control with vector expressing Gal4 alone (no PPAR ligand binding domain); type: cell-based; details: CV-1 cells
T3 construct: expressed in transfected cells; host or cells: CV-1 cells (monkey kidney cells)
T3 sequence (P04386 whole entry, the tested form may be a part): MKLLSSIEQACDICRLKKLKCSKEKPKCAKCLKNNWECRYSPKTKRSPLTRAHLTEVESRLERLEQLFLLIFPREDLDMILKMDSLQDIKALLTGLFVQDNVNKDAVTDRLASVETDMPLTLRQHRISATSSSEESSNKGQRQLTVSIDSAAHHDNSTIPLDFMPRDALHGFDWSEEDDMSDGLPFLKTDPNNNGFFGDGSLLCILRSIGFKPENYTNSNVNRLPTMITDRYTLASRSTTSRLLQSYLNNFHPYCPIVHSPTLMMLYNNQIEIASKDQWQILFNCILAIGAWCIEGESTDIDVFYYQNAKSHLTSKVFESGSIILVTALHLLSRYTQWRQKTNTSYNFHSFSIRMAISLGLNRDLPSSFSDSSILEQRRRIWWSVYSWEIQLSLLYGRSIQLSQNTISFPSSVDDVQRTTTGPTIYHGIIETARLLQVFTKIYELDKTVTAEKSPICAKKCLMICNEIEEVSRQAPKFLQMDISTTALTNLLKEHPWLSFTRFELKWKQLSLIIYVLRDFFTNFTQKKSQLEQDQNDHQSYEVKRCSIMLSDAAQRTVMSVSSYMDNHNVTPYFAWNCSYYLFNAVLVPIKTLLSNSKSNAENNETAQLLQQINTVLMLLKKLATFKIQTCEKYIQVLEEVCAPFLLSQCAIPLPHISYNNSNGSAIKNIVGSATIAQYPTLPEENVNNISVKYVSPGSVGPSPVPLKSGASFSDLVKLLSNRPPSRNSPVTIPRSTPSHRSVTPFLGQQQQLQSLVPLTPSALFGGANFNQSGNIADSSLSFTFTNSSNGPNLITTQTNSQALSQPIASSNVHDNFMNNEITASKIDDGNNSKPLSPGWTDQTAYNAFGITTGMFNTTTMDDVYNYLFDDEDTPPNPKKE
Description: CV-1 cells (monkey kidney cells) are co-transfected with an expression vector for the chimeric proteins PPARα-Gal4 or PPARγ-Gal4 and with a “reporter” plasmid that allows the expression of the luciferase gene placed under the control of a promoter comprising Gal4 response elements. The cells are plated into 96-well microplates and co-transfected using a commercial reagent with the reporter plasmid (pG5-tk-pGL3) and the expression vector for the chimeric protein (PPARα-Gal4 or PPARγ-Gal4). After incubating for 4 hours, whole culture medium (comprising 10% foetal calf serum) is added to the wells. After 24 hours, the medium is removed and replaced with whole medium comprising the test products (50 μM, 25 μM and 12.5 μM final). The products are left in contact with the cells for 18 hours. The cells are then lysed and the luciferase activity is measured using a luminometer. A PPAR activation factor can then be calculated by means of activation of the expression of the reporter gene induced by the product (relative to the control cells that have not received any product). […] In the absence of the binding domain for the PPAR α or γ ligand (vector expressing Gal4 alone), the luciferase activity measured in the presence of this product is zero.

db/db mice = assay: Antidiabetic and hypolipidaemiant activity, oral, db/db mice; type: in vivo; details: oral 100 mg/kg/day
Description: The antidiabetic and hypolipidaemiant activity of the compounds was determined orally on db/db mice
17-week-old db/db mice are treated orally for 15 days with the compound of Example 2 (100 mg/kg/day). Each group studied comprises seven animals. After treatment for 15 days, retro-orbital samples are taken under mild anaesthesia and after fasting for four hours.
The following parameters were measured:
Assay of the glycaemia (glucose oxidase) and of the lipid parameters on the sera at D15 (COBAS): triglycerides, total cholesterol (CHOL), HDL cholesterol (HDL-C) and free fatty acids (FFA) (BioMérieux and Waco Chemicals assay kit).
The measurements reported represent mean values±standard error.

[3] = 15 days, p < 0.05 versus control
[4] = serum at D15, mean ± standard error

C=CCCC(Oc1ccc(-c2cc(C)ccc2C)cc1)C(=O)O (stereo not shown) [Example 90]
melting point: 95 to 98 °C

O=C(O)C(CCC1=CCCCC1)Oc1ccc2oc3ccccc3c2c1 (stereo not shown) [Example 10]
melting point: 142 to 144 °C

O=C(O)C(CCC1=CCCCC1)Oc1ccc(-c2cc3ccccc3s2)cc1 (stereo not shown) [Example 18]
melting point: 171 to 174 °C

O=C(O)C(CCC1=CCCCC1)Oc1ccc(Cl)cc1 (stereo not shown) [Example 13]
PPAR activation factor, Chimer γ ([1]; 12.5 μM): 7.2
PPAR activation factor, Chimer γ ([1]; 25 μM): 5.3
PPAR activation factor, Chimer γ ([1]; 50 μM): 8.5
PPAR activation factor, Chimer α ([2]; 12.5 μM): 6
PPAR activation factor, Chimer α ([2]; 25 μM): 4.8
PPAR activation factor, Chimer α ([2]; 50 μM): 12.5

C=CCCC(Oc1ccc(C(=O)c2ccc(Cl)cc2)cc1)C(=O)O (stereo not shown) [Example 17]
melting point: 141 °C

C=CCCC(Oc1ccc(-c2ccc(Cl)cc2)cc1)C(=O)O (stereo not shown) [Example 16]
melting point: 127 °C

C=CCCC(Oc1ccc(-c2cc3ccccc3s2)cc1)C(=O)O (stereo not shown) [Example 94]
melting point: 183 °C

C=CCCC(Oc1cccc(OCc2ccc3ccccc3n2)c1)C(=O)O (stereo not shown) [Example 88]
melting point: 125 °C

O=C(O)C(CCC1=CCCC1)Oc1ccc2oc3ccccc3c2c1 (stereo not shown) [Example 11]
melting point: 140 to 142 °C

C=CCCC(Oc1ccc(-c2ccc(F)cc2)cc1)C(=O)O (stereo not shown) [Example 12]
PPAR activation factor, Chimer γ ([1]; 12.5 μM): 1
PPAR activation factor, Chimer γ ([1]; 25 μM): 3.4
PPAR activation factor, Chimer γ ([1]; 50 μM): 15.6
melting point: 97 °C
PPAR activation factor, Chimer α ([2]; 12.5 μM): 4.3
PPAR activation factor, Chimer α ([2]; 25 μM): 13.1
PPAR activation factor, Chimer α ([2]; 50 μM): 19.9

C=CCCC(Oc1ccc(-c2ccc(OC(F)(F)F)cc2)cc1)C(=O)O (stereo not shown) [Example 95]
melting point: 115 to 116 °C

C=CCCC(Oc1ccc(C(=O)/C=C/c2ccccc2)cc1)C(=O)O (stereo not shown) [Example 92]
melting point: 125 °C

C=CCCC(Oc1ccc(-c2ccc(F)c(F)c2)cc1)C(=O)O (stereo not shown) [Example 98]
melting point: 70 to 72 °C

C=CCCC(Oc1ccc(-c2cccc(F)c2)cc1)C(=O)O (stereo not shown) [Example 97]
melting point: 110 °C

C=CCCC(Oc1ccc(-c2ccc(OC)cc2)cc1)C(=O)O (stereo not shown) [Example 8]
melting point: 128 to 130 °C

C=CCCC(Oc1ccc(-c2csc3ccccc23)cc1)C(=O)O (stereo not shown) [Example 93]
melting point: 98 °C

C=CCCC(Oc1ccc(Oc2ccccc2)cc1)C(=O)O (stereo not shown) [Example 87]
melting point: 61 °C

C=CCCC(Oc1ccc(-c2csc(C)n2)cc1)C(=O)O (stereo not shown) [Example 89]
melting point: 120 °C

O=C(O)C(CCC1=CCCCC1)Oc1ccc(C(F)(F)F)cc1 (stereo not shown) [Example 2, 4-cyclohex-1-enyl-2-[4-(trifluoromethyl)phenoxy]butanoic acid]
PPAR activation factor, Chimer γ ([1]; 12.5 μM): 2.2
PPAR activation factor, Chimer γ ([1]; 25 μM): 5.2
PPAR activation factor, Chimer γ ([1]; 50 μM): 9.3
luciferase activity in the absence of the binding domain for the PPAR α or γ ligand (Gal4 alone): zero
melting point: 109 to 111 °C
Glycaemia (db/db mice; 15 days, fasted four hours, mean ± standard error): 23.23 ± 5.43 mM
CHOL, % var. (percentage of variation versus control) (db/db mice; 15 days, not significant): +28% ns
FFA, % var. (percentage of variation versus control) (db/db mice; 15 days, p < 0.01 versus control): −34% **
Glycaemia, % var. (percentage of variation versus control) (db/db mice; [3]): −26% *
HDL-C, % var. (percentage of variation versus control) (db/db mice; [3]): +21% *
Triglycerides, % var. (percentage of variation versus control) (db/db mice; [3]): −55% *
CHOL (total cholesterol) (db/db mice; [4]): 6.04 ± 0.61 mM
FFA (free fatty acids) (db/db mice; [4]): 0.48 ± 0.12 mM
HDL-C (db/db mice; [4]): 4.26 ± 0.61 mM
Triglycerides (db/db mice; [4]): 1.05 ± 0.29 mM
PPAR activation factor, Chimer α ([2]; 12.5 μM): 3.6
PPAR activation factor, Chimer α ([2]; 25 μM): 17.2
PPAR activation factor, Chimer α ([2]; 50 μM): 24.9

O=C(O)C(CCC1=CCCCC1)Oc1ccc(-c2ccc(F)cc2)cc1 (stereo not shown) [Example 19]
melting point: 156 to 158 °C

C=CCCC(Oc1ccc(C(F)(F)F)cc1)C(=O)O (stereo not shown) [Example 86]
melting point: 70 °C
